Test results taken from patent publication US20080306076A1, “MODULATION OF CHEMOSENSORY RECEPTORS AND LIGANDS ASSOCIATED THEREWITH” (SENOMYX, INC., priority 2007, published 2008).
Positions count from the first letter of the chain named.

Assays:
[1] = molecular target: T1, hT1R1 T149S (Homo sapiens, UniProt Q7RTX1, T149S); assay: Mutagenesis study, hT1R1 mutant T149S; type: cell-based; conditions: 0.25 mM of L-Glu, FIG. 12
T1 construct: expressed in transfected cells; host or cells: HEK293, transient transfection
T1 sequence (Q7RTX1 21-841 T149S): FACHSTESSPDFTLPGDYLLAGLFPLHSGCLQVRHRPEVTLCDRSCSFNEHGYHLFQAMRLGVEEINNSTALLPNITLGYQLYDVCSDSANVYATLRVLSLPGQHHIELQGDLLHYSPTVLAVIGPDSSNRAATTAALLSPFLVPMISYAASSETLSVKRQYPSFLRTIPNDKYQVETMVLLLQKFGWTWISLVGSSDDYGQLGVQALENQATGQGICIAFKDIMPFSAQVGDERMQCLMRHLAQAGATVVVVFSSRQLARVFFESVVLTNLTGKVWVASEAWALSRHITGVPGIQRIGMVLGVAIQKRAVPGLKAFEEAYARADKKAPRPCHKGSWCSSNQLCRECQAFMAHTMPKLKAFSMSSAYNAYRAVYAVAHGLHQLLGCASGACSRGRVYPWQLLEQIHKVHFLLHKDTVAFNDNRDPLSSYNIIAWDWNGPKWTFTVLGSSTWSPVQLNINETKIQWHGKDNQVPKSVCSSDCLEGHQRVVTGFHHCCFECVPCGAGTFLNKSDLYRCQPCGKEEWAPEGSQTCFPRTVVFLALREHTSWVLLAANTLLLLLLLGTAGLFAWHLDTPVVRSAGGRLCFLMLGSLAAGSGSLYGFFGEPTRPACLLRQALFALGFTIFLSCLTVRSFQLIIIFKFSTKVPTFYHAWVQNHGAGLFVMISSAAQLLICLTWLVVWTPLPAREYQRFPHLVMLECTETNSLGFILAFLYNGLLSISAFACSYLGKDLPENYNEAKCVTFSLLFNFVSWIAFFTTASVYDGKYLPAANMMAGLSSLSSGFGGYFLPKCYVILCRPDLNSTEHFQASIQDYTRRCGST
T1 sequence (Q923K1 21-858 partner): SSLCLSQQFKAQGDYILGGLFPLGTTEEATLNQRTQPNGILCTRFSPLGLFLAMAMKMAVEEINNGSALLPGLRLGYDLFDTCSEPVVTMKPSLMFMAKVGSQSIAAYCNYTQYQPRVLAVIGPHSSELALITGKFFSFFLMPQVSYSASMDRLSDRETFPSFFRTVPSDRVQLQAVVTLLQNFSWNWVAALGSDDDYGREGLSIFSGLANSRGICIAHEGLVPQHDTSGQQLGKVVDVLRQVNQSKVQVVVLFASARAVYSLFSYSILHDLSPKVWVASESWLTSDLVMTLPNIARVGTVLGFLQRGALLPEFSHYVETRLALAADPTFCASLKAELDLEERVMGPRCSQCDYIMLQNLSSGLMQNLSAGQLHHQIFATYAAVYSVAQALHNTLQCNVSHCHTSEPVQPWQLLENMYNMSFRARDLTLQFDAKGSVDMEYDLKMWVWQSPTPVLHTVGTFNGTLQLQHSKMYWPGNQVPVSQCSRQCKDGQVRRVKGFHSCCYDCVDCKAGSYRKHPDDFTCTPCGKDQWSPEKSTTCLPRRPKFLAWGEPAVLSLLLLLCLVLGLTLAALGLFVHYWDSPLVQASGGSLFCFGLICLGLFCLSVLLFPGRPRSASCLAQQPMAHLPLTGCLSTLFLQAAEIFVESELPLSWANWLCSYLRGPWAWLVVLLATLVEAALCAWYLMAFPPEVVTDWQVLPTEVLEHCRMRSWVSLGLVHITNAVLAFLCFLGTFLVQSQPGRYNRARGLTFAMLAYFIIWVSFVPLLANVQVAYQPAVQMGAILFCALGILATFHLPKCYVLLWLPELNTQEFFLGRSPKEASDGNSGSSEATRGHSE
Text: (§1) In order to further define the interaction sites of umami stimuli, we performed site-directed mutagenesis on human T1R1 VFT. The mutagenesis was done using the routine PCR-based method. […] were transiently transfected into HEK293 cell together with the rat T1R3 wild type cDNA, and the transfected cells were characterized using an automated FLIPR machine or a calcium imaging system as described in our previous patent applications.

[2] = molecular target: T2, hT1R1 S306A (Homo sapiens, UniProt Q7RTX1, S306A); assay: Mutagenesis study, hT1R1 mutant S306A; type: cell-based; conditions: S306 mutation
T2 construct: expressed in transfected cells; host or cells: HEK293, transient transfection
T2 sequence (Q7RTX1 21-841 S306A): T1 sequence (Q7RTX1 21-841 T149S) with S129T, S286A
T2 sequence (Q923K1 21-858 partner): T1 sequence (Q923K1 21-858 partner)
Text: as §1

SMILES | activity against L-Glu compared to the wild type [1] | enhancement activity of GMP [2]
N[C@@H](CCC(=O)O)C(=O)O [L-Glu, L-glutamate] | increased activity | –
Nc1nc2c(ncn2[C@@H]2O[C@H](COP(=O)(O)O)[C@@H](O)[C@H]2O)c(=O)[nH]1 [GMP, guanosine-5′-monophosphate] | – | similarly affected
